# Laboratory results as given in patent EP4763206A1, “AGENT FOR SUPPRESSING AGGREGATION OF TDP-43, AGENT FOR SUPPRESSING CELL DEATH OF CELLS IN WHICH TDP-43 IS OVEREXPRESSED, AND AGENT FOR PREVENTING OR TREATING DISEASES ASSOCIATED WITH AGGREGATION OF TDP-43” (Socium Inc., priority 2023, dated 2025).
# Entries after “also recorded” stand apart in the source; their conditions may differ. Where two headings read alike, the source gives them in different places.
# What was measured:
# [1] = tested on: Neuro2a cells; experiment: Suppression of cell death in TDP-43-transfected Neuro2a cells (Reference Example 2); format: cell-based, Mouse; details: 10 to 10,000 nmol/L added 5 hours after transfection; evaluated 7 days after transfection (Figures 3, 4)
# Method: Neuro2a cells were seeded on a dish. On the first day after seeding, differentiation into neurons was initiated. On the fourth day after seeding, cells were transfected with the TDP-43 gene. […] In addition, as a control, 10 nmol/L, 50 nmol/L, 100 nmol/L, 500 nmol/L, 1,000 nmol/L, 5,000 nmol/L, or 10,000 nmol/L of ropinirole was added to a culture medium.
# The proportion of dead cells was evaluated 7 days after the cells were transfected with the TDP-43 gene.
# [2] = tested on: TDP-43; experiment: Soluble/insoluble TDP-43 fractions in TDP-43-transfected Neuro2a cells, western blot (Reference Example 3); format: cell-based, Mouse; details: 10 µmol/L added 6 hours after transfection; for number of soluble fractions versus insoluble fractions of TDP-43: cultured for 12 hours (Figure 5); for proportion of insoluble fractions based on total of soluble and insoluble fractions of TDP-43: cultured for 12 hours (Figure 6)
# Method: Mouse neuroblastoma (Neuro2a) cells were seeded on a dish. The Neuro2a cells were cultured in a culture medium containing DMEM+10% FBS at 37°C in the presence of 5% CO2. On the first day after seeding, differentiation into neurons was initiated. Differentiation into neurons was performed in a culture medium containing DMEM+2% FBS+20 µmol/L retinoic acid. On the fourth day after seeding, cells were transfected with synthesized TDP-43 mRNA by a lipofection method. Cells were sampled at 6 hours, 9 hours, 12 hours, 15 hours, 18 hours, and 21 hours after transfection. […] For sampling, cells were lysed in an RIPA buffer and centrifuged at 22,000×g for 30 minutes at 4°C, the supernatant was used as the soluble fraction, the precipitate was used as the insoluble fraction, and equal volumes of a 2×SDS sample buffer were added to the respective fractions and heated at 95°C for 5 minutes to prepare electrophoresis samples. The electrophoresis samples were subjected to electrophoresis using a polyacrylamide gel, TDP-43 was then transferred to a PVDF membrane. TDP-43 was detected through chemiluminescence using anti-TDP-43 antibodies as primary antibodies and HRP-conjugated anti-rabbit antibodies as secondary antibodies. […] The insoluble fractions of TDP-43 indicate the aggregation of TDP-43.
# Neuro2a cells were seeded on a dish. On the first day after seeding, differentiation into neurons was initiated. On the fourth day after seeding, cells were transfected with the TDP-43 gene.
# [3] = tested on: TDP-43; experiment: Soluble/insoluble TDP-43 fractions in motor neurons derived from iPS cells of ALS patients, western blot (Reference Example 4); format: cell-based, human; details: 10 µmol/L; for bands for insoluble fractions of TDP-43: cultured for 20 days (Figure 7); for average proportion of insoluble fractions of TDP-43: cultured for 20 days, three experiments, untreated ALS about 46.1%, healthy about 7.4%
# [4] = tested on: TDP-43; experiment: Soluble/insoluble TDP-43 fractions in motor neurons derived from iPS cells of healthy subjects, western blot (Reference Example 4); format: cell-based, human; details: 10 µmol/L, cultured for 20 days (Figure 7)
# Method: 100 µL of an EHS-gel basement membrane matrix (commercially available from FUJIFILM Wako Pure Chemical Corporation) was added to 12.5 mL of DMEM (Dulbecco's Modified Eagle Medium, commercially available from FUJIFILM Wako Pure Chemical Corporation) and mixed, and the mixture was added to a 24-well plate at 600 µL per well. The plate was left at room temperature for 2 hours, and the solution was then removed from the wells. Next, 600 µL of DMEM was added to each well, and the plate was left at room temperature for 2 hours.
# Motor neurons derived from iPS cells of healthy subjects and motor neurons derived from iPS cells of ALS patients were obtained from iXCells Biotechnologies. The motor neurons were quickly thawed in a thermostatic oven at 37°C and suspended in a motor neuron maintenance culture medium (iXCells Biotechnologies). […]
# The soluble protein fractions and the insoluble protein fractions were subjected to SDS-PAGE, and the proteins were transferred to a PVDF membrane. […] Next, the PVDF membrane was washed three times with a buffer solution, 1 mL of a luminescence reagent (ImmunoStar LD, commercially available from FUJIFILM Wako Pure Chemical Corporation) was then used to induce luminescence from the labeled secondary antibodies, and the PVDF membrane was imaged.
# [5] = tested on: Neuro2a cells; experiment: Cell death suppression by D-cycloserine combined with edaravone in TDP-43-transfected Neuro2a cells (Example 1); format: cell-based; details: Mus musculus, N2a
# Method: Neuro2a cells were seeded on a dish. On the first day after seeding, differentiation into neurons was initiated. On the fourth day after seeding, cells were transfected with the TDP-43 gene. […] The proportion of dead cells was evaluated 7 days after the cells were transfected with the TDP-43 gene. […] Here, the relative viability indicates the proportion of the number of viable cells overexpressing TDP-43 based on 100% of the number of viable cells not overexpressing TDP-43. […] The CI was calculated using the following formula. […] CI=1 indicates an additive effect, CI>1 indicates an antagonistic effect, and CI<1 indicates a synergistic effect.
# [6] = Reported human pharmacokinetics of D-cycloserine; format: in vivo, humans; details: estimated; 15 mg orally administered twice daily
# [7] = cited from earlier work
# [8] = cited from earlier work; remark: listed apart in the source
Structure (SMILES),cell death in cells transfected with the TDP-43 gene [1],number of soluble fractions versus insoluble fractions of TDP-43 [2],proportion of insoluble fractions based on total of soluble and insoluble fractions of TDP-43 [2],bands for insoluble fractions of TDP-43 [3],average proportion of insoluble fractions of TDP-43 [3],bands for insoluble fractions of TDP-43 [4],"EC50 ([5]; read-out: EC50 of the cell death suppressory effect of D-cycloserine, at 0 nmol/L of edaravone)","EC50 ([5]; read-out: EC50 of the cell death suppressory effect of D-cycloserine, at 10 nmol/L of edaravone)","EC50 ([5]; read-out: EC50 of the cell death suppressory effect of D-cycloserine, at 30 nmol/L of edaravone)","EC50 ([5]; read-out: EC50 of the cell death suppressory effect of D-cycloserine, at 100 nmol/L of edaravone)","EC50 ([5]; read-out: EC50 of the cell death suppressory effect of D-cycloserine, at 300 nmol/L of edaravone)","EC50 ([5]; read-out: EC50 of the cell death suppressory effect of D-cycloserine, at 1,000 nmol/L of edaravone)",trough value [6],"Cmax ([7]; 15 mg orally administered to humans, read-out: maximum blood concentration (Cmax))",half-life ([7]; in vivo),side effects ([8]; 150 mg administered to humans),side effects ([8]; 250 mg administered to humans to treat tuberculosis)
"N[C@@H]1CONC1=O [D-cycloserine, (4R)-4-Amino-1,2-oxazolidin-3-one]",cell death was inhibited; also recorded: exhibited an effect of inhibiting cell death in a concentration-dependent manner,the number of soluble fractions of TDP-43 was larger than the number of insoluble fractions of TDP-43,less than half,bands for insoluble fractions were unclear,about 17.4%,bands for insoluble fractions were unclear,151 nM,149 nM,135 nM,119 nM,107 nM,87.6 nM,> 128 nmol/L,~5.6 µM,about 10 hours,headaches,serious side effects such as epileptiform seizure and mental confusion
"N[C@H]1CONC1=O [L-cycloserine, (4S)-4-amino-1,2-oxazolidin-3-one]",exhibited an effect of inhibiting cell death in a concentration-dependent manner,the number of soluble fractions of TDP-43 was larger than the number of insoluble fractions of TDP-43,less than half,–,–,–,–,–,–,–,–,–,–,–,–,–,–
CCCN(CCC)CCc1cccc2c1CC(=O)N2 [ropinirole],–,–,–,bands for insoluble fractions were unclear,about 19.3%,bands for insoluble fractions were unclear,–,–,–,–,–,–,–,–,–,–,–
